Test results taken from patent publication US10307389B2, “Succinate prodrugs for use in the treatment of lactic acidosis or drug-induced side-effects due to Complex I-related impairment of mitochondrial oxidative phosphorylation” (NEUROVIVE PHARMACEUTICAL AB, priority 2014, dated 2019).
“Also recorded” adds a separate entry of the source.

What was measured:
intact cells [1] = assay: Screening assay 2: enhancement and inhibition of mitochondrial energy producing function in intact cells (FCCP); type: cell-based, human; parameters: key to Convergent (FCCP): increase in mitochondrial oxygen consumption: (+): Brackets [( )] indicate an intermediate effect, i.e. (+++) is between ++ and +++; graded either +, ++ or +++ in increasing order of potency; (++): Brackets [( )] indicate an intermediate effect, i.e. (+++) is between ++ and +++; graded either +, ++ or +++ in increasing order of potency; (+++) is between ++ and +++; graded either +, ++ or +++ in increasing order of potency; conditions: for Toxicity: lowest concentration during compound titration at which a decrease in oxygen consumption is seen: screening assay 2; for Convergent (FCCP): increase in mitochondrial oxygen consumption: screening assay 2, uncoupled conditions
Method: (§1) Measurement of mitochondrial respirationise performed in a high-resolution oxygraph (Oxygraph-2k, Oroboros Instruments, Innsbruck, Austria) at a constant temperature of 37° C. Isolated human platelets, white blood cells, fibroblasts, human heart muscle fibers or other cell types containing live mitochondria are suspended in a 2 mL glass chamber at a concentration sufficient to yield oxygen consumption in the medium of 10 pmol O2 s^−1 mL^−1.
In the second protocol the same buffer is used as described above. After basal respiration is established, the mitochondrial uncoupler FCCP is added at a concentration of 2 nM to increase metabolic demand.

[2] = test system: intact human blood cells with inhibited complex I in human plasma; assay: Screening assay 4: cells with inhibited respiratory complex I in human plasma; type: cell-based; parameters: key: (+): Brackets [( )] indicate an intermediate effect, i.e. (+++) is between ++ and +++; graded either +, ++ or +++ in increasing order of potency; (++): Brackets [( )] indicate an intermediate effect, i.e. (+++) is between ++ and +++; graded either +, ++ or +++ in increasing order of potency; (+++) is between ++ and +++; graded either +, ++ or +++ in increasing order of potency; conditions: screening assay 4, complex I inhibited
Method: Measurement of mitochondrial respirationise performed in a high-resolution oxygraph (Oxygraph-2k, Oroboros Instruments, Innsbruck, Austria) at a constant temperature of 37° C. […] Intact human blood cells are incubated in plasma from the same donor. […] The experiment is terminated by addition of Antimycin at final concentration 1 μg/mL and any residual non-mitochondrial oxygen consumption is measured.

intact cells [3] = assay: Screening assay 3: uncoupling in intact cells; for Uncoupling: level of oxygen consumption after addition of oligomycin: tested at 1000 µM; type: cell-based, human; parameters: key: (+): Brackets [( )] indicate an intermediate effect, i.e. (+++) is between ++ and +++; graded either +, ++ or +++ in increasing order of potency; (++): Brackets [( )] indicate an intermediate effect, i.e. (+++) is between ++ and +++; graded either +, ++ or +++ in increasing order of potency; (+++) is between ++ and +++; graded either +, ++ or +++ in increasing order of potency; conditions: for Uncoupling: level of oxygen consumption after addition of oligomycin: screening assay 3; for Convergent (Routine): increase in mitochondrial oxygen consumption: screening assay 3, 1 mM compound
Method: Measurement of mitochondrial respirationise performed in a high-resolution oxygraph (Oxygraph-2k, Oroboros Instruments, Innsbruck, Austria) at a constant temperature of 37° C. […] In the third protocol, the same buffer as described above is used. […] Subsequently, the ATP-synthase-inhibitor Oligomycin is added. A reduction in respiration is a measure of how much of the oxygen consumption that is coupled to ATP synthesis. No, or only a slight, reduction indicate that the compound is inducing a proton leak over the inner mitochondrial membrane. The uncoupler FCCP is then titrated to induce maximum uncoupled respiration. […] The experiment is terminated by the addition of 1 μg/mL of the complex III inhibitor Antimycin to measure non-mitochondrial oxygen consumption.

[4] = test system: cells with inhibited respiratory complex I; assay: Screening assay 1: enhancement of mitochondrial energy producing function in cells with inhibited respiratory complex I; type: cell-based, human; parameters: key: (+): Brackets [( )] indicate an intermediate effect, i.e. (+++) is between ++ and +++; graded either +, ++ or +++ in increasing order of potency; (++): Brackets [( )] indicate an intermediate effect, i.e. (+++) is between ++ and +++; graded either +, ++ or +++ in increasing order of potency; (+++) is between ++ and +++; graded either +, ++ or +++ in increasing order of potency; conditions: screening assay 1, complex I inhibited with rotenone 2 μM
Method: as §1
Cells are placed in a buffer containing 110 mM sucrose, HEPES 20 mM, taurine 20 mM, K-lactobionate 60 mM, MgCl2 3 mM, KH2PO4 10 mM, EGTA 0.5 mM, BSA 1 g/l, pH 7.1. […] Compounds dissolved in DMSO are titrated in a range of 10 μM to 10 mM final concentration. Subsequently, cell membranes are permeabilised with digitonin (1 mg/1*10^6 plt) to allow entry of extracellularly released energy substrate or cell impermeable energy substrates. After stabilized respiration, Succinate 10 mM is added as a reference to enable respiration downstream of complex I. After the respiration stabilized the experiment is terminated by addition of Antimycin at final concentration 1 μg/mL and any residual non-mitochondrial oxygen consumption is measured. An increase in respiration rate in the described protocol is tightly coupled to ATP synthesis by oxidative phosphorylation unless cells are uncoupled (i.e. proton leak without production of ATP). Uncoupling is tested for by addition of the ATP synthase inhibitor oligomycin (1-2 μg mL^−1) in a protocol 3 where the extent of uncoupling corresponds to the respiratory rate following oligomycin addition.

intact human platelets = assay: Intervention on rotenone- or metformin-induced lactate production with cell-permeable succinate prodrugs; type: cell-based; conditions: for effect on rotenone-induced lactate production: 2 μM rotenone, repeated additions of 250 μM; for effect on metformin-induced lactate production: 10 mM metformin, additions of 250 μM each 30 minutes
Method: Lactate levels are determined every 30 min using the Lactate Pro™ 2 blood lactate test meter (Arkray, Alere A B, Lidingö, Sweden) or similar types of measurements. Incubation is performed at 37° C. pH is measured at start, after 4 and after 8 h (or more frequently) of incubation using a Standard pH Meter, e.g. PHM210 (Radiometer, Copenhagen, Denmark). Drug candidates are added to the assay from start or following 30-60 min at concentrations within the range 10 μM-5 mM. […] In order to evaluate the specificity of the drug candidate, it is also tested in combination with a down-stream inhibitor of respiration such as the complex III inhibitor Antimycin at 1 μg/mL, which should abolish the effect of the drug candidate and restore the production of lactate.
Lactate levels were measured in intervals of 30 min with the onset of the experiment.

Row | Molecule | Toxicity: lowest concentration during compound titration at which a decrease in oxygen consumption is seen (intact cells [1]) [mM] | Convergent (FCCP): increase in mitochondrial oxygen consumption (intact cells [1]) | CII (plasma): increase in mitochondrial oxygen consumption [2] | Uncoupling: level of oxygen consumption after addition of oligomycin (intact cells [3]) | Convergent (Routine): increase in mitochondrial oxygen consumption (intact cells [3]) | CII: increase in mitochondrial oxygen consumption [4] | effect on rotenone-induced lactate production (intact human platelets) | effect on metformin-induced lactate production (intact human platelets)
1 | CCC(=O)N[C@@H](CSC(=O)CCC(=O)O)C(=O)O [Compound 01-041, (R)-4-(2-carboxy-2-propionamidoethylthio)-4-oxobutanoic acid] | 5 | +++ | + | (+) | + | ++ | – | –
2 | CC(=O)NCCSC(=O)CCC(=O)O [Compound 01-108, 4-(2-acetamidoethylthio)-4-oxobutanoic acid] | 10 | ++ | (+) | + | ++ | (++) | – | –
3 | CCC(=O)NCCSC(=O)CCC(=O)O [Compound 01-114, 4-oxo-4-(2-propionamidoethylthio)butanoic acid] | 10 | ++ | + | (+) | +++ | ++ | – | –
4 | CC(=O)OC(CCCOC(=O)CCC(=O)O)OC(=O)CCC(=O)O (centres unmarked) [Compound 01-134] | 10 | (+) | (+) | (+) | ++ | (+) | – | –
5 | CC(=O)OC(CCCN1C(=O)c2ccccc2C1=O)OC(=O)CCC(=O)O (centres unmarked) [Compound 01-150, 4-(1-acetoxy-4-(1,3-dioxoisoindolin-2-yl)butoxy)-4-oxobutanoic acid] | 2 | + | (+) | (+) | +++ | ++ | – | –
6 | CCC(=O)N[C@@H](CSC(=O)CCC(=O)SC[C@H](NC(=O)CC)C(=O)N(CC)CC)C(=O)N(CC)CC [Compound 01-185, S,S-bis((R)-3-(diethylamino)-3-oxo-2-propionamidopropyl) butanebis(thioate)] | 2 | + | + | (+) | (+) | + | – | –
7 | CC(=O)NCC(C)(C)SC(=O)CCC(=O)O [Compound 01-188, 4-(1-acetamido-2-methylpropan-2-ylthio)-4-oxobutanoic acid] | 5 | +++ | + | (+) | +++ | + | – | –
8 | CCN(CC)C(=O)COCCSC(=O)CCC(=O)O [Compound 01-193, 4-(2-(2-(diethylamino)-2-oxoethoxy)ethylthio)-4-oxobutanoic acid] | 5 | + | (+) | + | (++) | + | – | –
9 | CCC(=O)N[C@@H](CSC(=O)CCC(=O)SC[C@H](NC(=O)CC)C(=O)OC)C(=O)OC [Compound 01-205, (R)-methyl 3-(4-((R)-3-methoxy-3-oxo-2-propionamidopropylthio)-4-oxobutanoylthio)-2-propionamidopropanoate] | 5 | ++ | + | (+) | +++ | ++ | – | –
10 | CC(=O)OC(C)OC(=O)CCC(=O)OC(C)OC(C)=O (centres unmarked) [NV189, Succinic acid bis-(1-acetoxy-ethyl) ester] | – | – | – | – | – | – | attenuated; also recorded: brought back to normal | significantly decreased
11 | CC(=O)OCOC(=O)CCC(=O)OC(C)OC(C)=O (centres unmarked) [NV241, Succinic acid 1-acetoxy-ethyl ester acetoxymethyl ester] | – | – | – | – | – | – | attenuated | significantly decreased
12 | succinate [reference compound] | – | – | – | – | – | – | – | did not change this; also recorded: did not reduce
